The molecules below were run against T1, human mGluR2 receptor (Homo sapiens, UniProt Q14416) (assay: [35S]GTPγS binding assay (GTPγS-PAM): positive allosteric modulation in presence of glutamate at EC25, membranes from transfected CHO cells). Settings: in presence of mGluR2 agonist glutamate at predetermined EC25 concentration, averages of duplicate values of 11-concentration response curves.
T1 construct: expressed in transfected cells; host or cells: CHO cells (membrane preparation)
T1 sequence (Q14416 19-872): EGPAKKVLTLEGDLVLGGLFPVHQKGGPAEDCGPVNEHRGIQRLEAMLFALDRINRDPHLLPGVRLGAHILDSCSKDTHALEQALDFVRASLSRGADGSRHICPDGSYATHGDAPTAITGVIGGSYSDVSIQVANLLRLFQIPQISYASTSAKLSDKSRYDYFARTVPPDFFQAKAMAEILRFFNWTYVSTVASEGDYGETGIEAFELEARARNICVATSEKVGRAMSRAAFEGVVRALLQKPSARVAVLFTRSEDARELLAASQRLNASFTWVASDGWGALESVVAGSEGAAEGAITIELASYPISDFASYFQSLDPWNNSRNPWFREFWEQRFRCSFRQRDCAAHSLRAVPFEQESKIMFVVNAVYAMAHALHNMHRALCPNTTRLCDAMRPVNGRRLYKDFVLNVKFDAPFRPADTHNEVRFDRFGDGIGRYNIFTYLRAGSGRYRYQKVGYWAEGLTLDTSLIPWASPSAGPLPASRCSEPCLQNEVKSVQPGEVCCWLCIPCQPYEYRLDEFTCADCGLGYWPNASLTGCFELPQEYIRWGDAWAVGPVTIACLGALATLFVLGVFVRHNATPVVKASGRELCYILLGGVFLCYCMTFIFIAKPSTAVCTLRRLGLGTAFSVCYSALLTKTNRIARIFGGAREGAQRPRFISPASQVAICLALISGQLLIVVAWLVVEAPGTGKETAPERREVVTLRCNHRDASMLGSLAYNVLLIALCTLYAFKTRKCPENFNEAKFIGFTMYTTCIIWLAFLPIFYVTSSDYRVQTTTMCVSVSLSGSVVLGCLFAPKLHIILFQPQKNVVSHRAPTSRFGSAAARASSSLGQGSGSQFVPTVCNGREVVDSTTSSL
Type: biochemical
From the text: The compounds provided in the present invention are positive allosteric modulators of mGluR2. These compounds appear to potentiate glutamate responses by binding to an allosteric site other than the glutamate binding site. The response of mGluR2 to a concentration of glutamate is increased when compounds of Formula (I) are present. Compounds of Formula (I) are expected to have their effect substantially at mGluR2 by virtue of their ability to enhance the function of the receptor. The behaviour of positive allosteric modulators tested at mGluR2 using the [^35S]GTPγS binding assay method described below and which is suitable for the identification of such compounds, and more particularly the compounds according to Formula (I), are shown in Table 4.
[^35S]GTPγS Binding Assay
The [^35S]GTPγS binding is a functional membrane-based assay used to study G-protein coupled receptor (GPCR) function whereby incorporation of a non-hydrolysable form of GTP, [^35S]GTPγS (guanosine 5′-triphosphate, labelled with […] ^35S), is measured. The G-protein o subunit catalyzes the exchange of guanosine 5′-diphosphate (GDP) by guanosine triphosphate (GTP) and on activation of the GPCR by an agonist, [^35S]GTPγS, becomes incorporated and cannot be cleaved to continue the exchange cycle (Harper (1998) Current Protocols in Pharmacology 2.6.1-10, John Wiley & Sons, Inc.). […] Here we describe the use of the [^35S]GTPγS binding assay using membranes from cells transfected with the human mGluR2 receptor and adapted from Schaffhauser et al ((2003) Molecular Pharmacology 4:798-810) for the detection of the positive allosteric modulation (PAM) properties of the compounds of this invention.
CHO-cells were cultured to pre-confluence and stimulated with 5 mM butyrate for 24 hours, prior to washing in PBS, and then collection by scraping in homogenisation buffer (50 mM Tris-HCl buffer, pH 7.4, 4° C.). Cell lysates were homogenized briefly (15 s) using an ultra-turrax homogenizer. The homogenate was centrifuged at 23 500×g for 10 minutes and the supernatant discarded. The pellet was resuspended in 5 mM Tris-HCl, pH 7.4 and centrifuged again (30 000×g, 20 min, 4° C.). The final pellet was resuspended in 50 mM HEPES, pH 7.4 and stored at −80° C. in appropriate aliquots before use. Protein concentration was determined by the Bradford method (Bio-Rad, USA) with bovine serum albumin as standard.
Measurement of mGluR2 positive allosteric modulators in membranes containing human mGluR2 was performed using frozen membranes that were thawed and briefly homogenised prior to pre-incubation in 96-well microplates (15 μg/assay well, 30 minutes, 30° C.) in assay buffer (50 mM HEPES pH 7.4, 100 mM NaCl, 3 mM MgCl2, 50 μM GDP, 10 μg/ml saponin,) with increasing concentrations of positive allosteric modulator (from 0.3 nM to 50 μM) and either a minimal pre-determined concentration of glutamate (PAM assay), or no added glutamate. For the PAM assay, membranes were pre-incubated with glutamate at EC25 concentration, i.e. a concentration that gives 25% of the maximal response glutamate, and is in accordance to published data (Pin et al. (1999) Eur. J. Pharmacol. 375:277-294). After addition of [^35S]GTPγS (0.1 nM, f.c.) to achieve a total reaction volume of 200 μl, microplates were shaken briefly and further incubated to allow [^35S]GTPγS incorporation on activation (30 minutes, 30° C.). The reaction was stopped by rapid vacuum filtration over glass-fibre filter plates (Unifilter 96-well GF/B filter plates, Perkin-Elmer, Downers Grove, USA) microplate using a 96-well plate cell harvester (Filtermate, Perkin-Elmer, USA), and then by washing three times with 300 μl of ice-cold wash buffer (Na2PO4.2H2O 10 mM, NaH2PO4.H2O 10 mM, pH=7.4). Filters were then air-dried, and 40 μl of liquid scintillation cocktail (Microscint-O) was added to each well, and membrane-bound [^35S]GTPγS was measured in a 96-well scintillation plate reader (Top-Count, Perkin-Elmer, USA). […]
For `CCCCn1ccc(N2CCN(c3nc(C)cc(C)n3)CC2)c(C#N)c1=O` [2-005], the “GTPgS - hR2 PAM pEC50” value was 6.2.

Same assay, conditions: in presence of mGluR2 agonist glutamate at predetermined EC25 concentration, averages of duplicate values of 11-concentration response curves, read-out: GTPgS - hR2 PAM pEC50 (converted)
Molecule `COc1cccc(CCc2ccn(CCC(C)C)c(=O)c2C#N)c1` [1-264] has an EC50 of 1580 nM. Work on `COc1ccc(C=Cc2ccn(CCC(C)C)c(=O)c2C#N)cc1` [1-266] yielded an EC50 of 316 nM. In the case of `CC(C)CCn1ccc(C#Cc2ccccc2)c(C#N)c1=O` [1-267, 3-cyano-1-(3-methylbutyl)-4-(phenylethynyl)pyridine-2(1H)-one], the EC50 is reported as 79.4 nM. `COc1ccc(C#Cc2ccn(CCC(C)C)c(=O)c2C#N)cc1` [1-268] showed an EC50 of 50.1 nM. For `CC(C)CCn1ccc(C#Cc2cccc(N(C)C)c2)c(C#N)c1=O` [1-269], the EC50 was 158 nM. In the case of `N#Cc1c(OCc2ccc(CN3CCOCC3)cc2)ccn(Cc2ccc(OC(F)(F)F)cc2)c1=O` [1-271], the EC50 is reported as 158 nM. `N#Cc1c(OCc2ccccc2)ccn(Cc2ccc(OC(F)(F)F)cc2)c1=O` [1-272] was tested, and the EC50 was 126 nM. For `CCCCn1ccc(Oc2ccc(Br)cc2)c(C#N)c1=O` [1-273], the EC50 was 631 nM. For `CC(C)CCn1ccc(Oc2ccccc2)c(C#N)c1=O` [1-274], the EC50 was 1580 nM. For `CC(C)CCn1ccc(OCCc2ccccc2)c(C#N)c1=O` [1-276], the EC50 was 2510 nM. Work on `CC(C)CCn1ccc(OCc2ccc(C(F)(F)F)cc2)c(C#N)c1=O` [1-277] yielded an EC50 of 251 nM. Molecule `CC(C)CCn1ccc(OCc2ccc(Br)cc2)c(C#N)c1=O` [1-278] has an EC50 of 316 nM. In the case of `CC(C)CCn1ccc(OCCOc2ccccc2)c(C#N)c1=O` [1-280], the EC50 is reported as 1580 nM. With `COc1ccc(COc2ccn(CCC(C)C)c(=O)c2C#N)cc1F` [1-283] the EC50 was 794 nM. `CC(C)CCn1ccc(OCc2ccc(C#N)cc2)c(C#N)c1=O` [1-286] was tested, and the EC50 was 3980 nM. `CC(C)CCn1ccc(OCc2ccc(SC(F)(F)F)cc2)c(C#N)c1=O` [1-287] was tested, and the EC50 was 63.1 nM. `CC(C)CCn1ccc(OCc2ccc(OCc3ccccc3)cc2)c(C#N)c1=O` [1-289] gave an EC50 of 79.4 nM. For `CC(C)CCn1ccc(Oc2ccc(N3CCCC3)cc2)c(C#N)c1=O` [1-291], the EC50 was 501 nM. `N#Cc1c(Nc2ccc(Oc3ccncc3)cc2)ccn(CC2CC2)c1=O` [1-295] was tested, and the EC50 was 3980 nM. In the case of `CCCCn1ccc(N[C@H]2CC[C@H](c3ccccc3)CC2)c(C#N)c1=O` [1-297], the EC50 is reported as 200 nM. In the case of `CC(C)CCn1ccc(Nc2ccccc2)c(C#N)c1=O` [1-298], the EC50 is reported as 3980 nM. With `CC(C)CCn1ccc(Nc2ccc(N3CCOCC3)cc2)c(C#N)c1=O` [1-300] the EC50 was 2000 nM. `CC(C)CCn1ccc(Nc2ccc(Oc3ccccc3)cc2)c(C#N)c1=O` [1-301] showed an EC50 of 200 nM. Work on `CC(C)CCn1ccc(Nc2ccc(Oc3ccncc3)cc2)c(C#N)c1=O` [1-302] yielded an EC50 of 1260 nM. Molecule `CC(C)CCn1ccc(N(C)Cc2ccccc2)c(C#N)c1=O` [1-303] has an EC50 of 3160 nM. `CCCCn1ccc(OCc2ccc(-c3cccc(C)n3)cc2)c(C#N)c1=O` [1-306] was tested, and the EC50 was 3980 nM. `CCCCn1ccc(N2CCN(c3ccccn3)CC2)c(C#N)c1=O` [2-004] showed an EC50 of 2000 nM. For `CCCCn1ccc(N2CCN(c3ncc(C4CC4)cn3)CC2)c(C#N)c1=O` [2-006], the EC50 was 158 nM. `CCCCn1ccc(N2CCN(c3nccc(OC)n3)CC2)c(C#N)c1=O` [2-007] showed an EC50 of 1000 nM. Work on `CCCCn1ccc(N2CCN(c3nccc(NCC)n3)CC2)c(C#N)c1=O` [2-008] yielded an EC50 of 1580 nM. `CCCCn1ccc(N2CCN(c3cnc(N4CCOCC4)nc3)CC2)c(C#N)c1=O` [2-009] was tested, and the EC50 was 6310 nM. Work on `CC(C)CCn1ccc(N2CCN(c3ccccc3)CC2)c(C#N)c1=O` [2-011] yielded an EC50 of 501 nM. `COc1ccc(N2CCN(c3ccn(CCC(C)C)c(=O)c3C#N)CC2)cc1` [2-013] was tested, and the EC50 was 794 nM. With `CC(C)CCn1ccc(N2CCN(Cc3cccc(C(F)(F)F)c3)CC2)c(C#N)c1=O` [2-014] the EC50 was 794 nM. For `CC(C)CCn1ccc(N2CCN(Cc3ccc(F)c(F)c3)CC2)c(C#N)c1=O` [2-015], the EC50 was 1260 nM. Work on `CC(C)CCn1ccc(N2CCN(Cc3ccc4c(c3)OCO4)CC2)c(C#N)c1=O` [2-016] yielded an EC50 of 631 nM. In the case of `CC(C)CCn1ccc(N2CCN(CCc3ccccc3)CC2)c(C#N)c1=O` [2-017], the EC50 is reported as 200 nM. In the case of `CC(C)CCn1ccc(N2CCN(C/C=C/c3ccccc3)CC2)c(C#N)c1=O` [2-018], the EC50 is reported as 2510 nM. Molecule `CC(C)CCn1ccc(N2CCN(CCOc3ccc(F)cc3)CC2)c(C#N)c1=O` [2-019] has an EC50 of 6310 nM. Molecule `CC(C)CCn1ccc(N2CCN(CCOc3cccc(C(F)(F)F)c3)CC2)c(C#N)c1=O` [2-020] has an EC50 of 794 nM. For `CC(C)CCn1ccc(N2CCN(Cc3ccccc3)CC2C)c(C#N)c1=O` (centres unmarked) [2-021], the EC50 was 1260 nM. `CC(C)CCn1ccc(N2CCN(c3ccccn3)CC2)c(C#N)c1=O` [2-024] showed an EC50 of 2000 nM. With `Cc1ccc(N2CCN(c3ccn(CCC(C)C)c(=O)c3C#N)CC2)nc1` [2-025] the EC50 was 794 nM. For `CC(C)CCn1ccc(N2CCN(c3ccc(C#N)cn3)CC2)c(C#N)c1=O` [2-027], the EC50 was 6310 nM. `CC(C)CCn1ccc(N2CCN(c3ncccn3)CC2)c(C#N)c1=O` [2-028] showed an EC50 of 794 nM. `CC(C)CCn1ccc(N2CCN(c3ccc(-c4ccccc4)nn3)CC2)c(C#N)c1=O` [2-033] showed an EC50 of 2000 nM. `Cc1nnc(N2CCN(c3ccn(CCC(C)C)c(=O)c3C#N)CC2)c2ccccc12` [2-034] showed an EC50 of 3980 nM. `C[C@@H]1CN(c2ccn(CC3CC3)c(=O)c2C#N)C[C@H](C)N1c1ncccn1` [2-041] showed an EC50 of 3160 nM. `N#Cc1c(N2CCN(Cc3ccccc3)CC2)ccn(Cc2ccc(OC(F)(F)F)cc2)c1=O` [2-042] gave an EC50 of 631 nM. `CC1CN(Cc2cc(F)cc(F)c2)CCN1c1ccn(Cc2ccc(OC(F)(F)F)cc2)c(=O)c1C#N` (centres unmarked) [2-045] gave an EC50 of 501 nM. For `N#Cc1c(N2CCN(Cc3ccncc3)CC2)ccn(Cc2ccc(OC(F)(F)F)cc2)c1=O` [2-047], the EC50 was 5010 nM. In the case of `N#Cc1c(N2CCN(Cc3ccccc3)CC2)ccn(Cc2ccc(F)cc2)c1=O` [2-049], the EC50 is reported as 1580 nM. In the case of `N#Cc1c(N2CCN(Cc3cccc(F)c3)CC2)ccn(Cc2ccc(F)cc2)c1=O` [2-050], the EC50 is reported as 2510 nM. Work on `N#Cc1c(N2CCN(Cc3cc(F)cc(F)c3)CC2)ccn(Cc2ccc(F)cc2)c1=O` [2-052] yielded an EC50 of 3980 nM. `N#Cc1c(N2CCN(Cc3ccccc3)CC2)ccn(CCOc2ccccc2)c1=O` [2-053] gave an EC50 of 631 nM. Molecule `N#Cc1c(N2CCN(Cc3ccccc3)CC2)ccn(CCOCc2ccccc2)c1=O` [2-054] has an EC50 of 5010 nM. `N#Cc1c(N2CCN(c3ccccn3)CC2)ccn(Cc2ccc(F)cc2)c1=O` [2-055] showed an EC50 of 3980 nM. `CCCCn1ccc(OC2CCN(Cc3cccc(C(F)(F)F)c3)CC2)c(C#N)c1=O` [3-002] showed an EC50 of 1260 nM. For `CC(C)CCn1ccc(OC2CCN(Cc3cccc(C(F)(F)F)c3)CC2)c(C#N)c1=O` [3-008], the EC50 was 316 nM. Molecule `N#Cc1c(OC2CCN(Cc3cccc(C(F)(F)F)c3)CC2)ccn(CC2CC2)c1=O` [3-012] has an EC50 of 1260 nM. `CC(C)CCn1ccc(C2CCN(Cc3cccc(C(F)(F)F)c3)CC2)c(C#N)c1=O` [3-014] was tested, and the EC50 was 200 nM. With `CCCCn1ccc(N2CCC(c3ccccn3)CC2)c(C#N)c1=O` [4-001] the EC50 was 2000 nM. In the case of `CCCCn1ccc(N2CCC(c3cccnc3)CC2)c(C#N)c1=O` [4-002], the EC50 is reported as 3980 nM. `CCCCn1ccc(N2CCC(Oc3ccccn3)CC2)c(C#N)c1=O` [4-005] was tested, and the EC50 was 501 nM. For `CCCCn1ccc(N2CCC(COc3ccccn3)CC2)c(C#N)c1=O` [4-006], the EC50 was 501 nM. `CCCCn1ccc(N2CCC(COc3cccnc3)CC2)c(C#N)c1=O` [4-007] was tested, and the EC50 was 1580 nM. `CCCCn1ccc(N2CCC(CCOc3cccnc3)CC2)c(C#N)c1=O` [4-008] was tested, and the EC50 was 1580 nM.

Reference: patent US9266834B2, “1, 4-disubstituted 3-cyano-pyridone derivatives and their use as positive allosteric modulators of MGLUR2-receptors” (JANSSEN PHARMACEUTICALS, INC., priority 2006, dated 2016)
